According to US20060069132A1, “Azolecarboxamide herbicides” (priority 2004, published 2006):

How the values were obtained:
[1] = tested on: lambsquarters; assay: Test B pre-/postemergence herbicide test; assay type: in vivo, Chenopodium album; conditions: for Plant response rating (0 to 100 scale), Lambsquarters: 0 is no effect, 100 is complete control, preemergence
Summary of the method: (§1)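 Herbicidal effect was judged by eye on a 0–100 scale after plants stood 13 to 15 days in the greenhouse following pre- or postemergence treatment with surfactant-containing formulations.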

[2] = tested on: cocklebur; assay: Test B pre-/postemergence herbicide test; assay type: in vivo, Xanthium strumarium; conditions: for Plant response rating (0 to 100 scale), Cocklebur: 0 is no effect, 100 is complete control, preemergence
Summary of the method: (§2)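 Flooded paddy rice and barnyardgrass were treated at the 2-leaf stage; upland plantings received compound either on sown seed or on 1- to 4-leaf seedlings. All were kept 13–15 days in a greenhouse and scored visually, 0–100, relative to untreated plants.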

[3] = tested on: blackgrass; assay: Test B postemergence herbicide test; assay type: in vivo, Alopecurus myosuroides
Summary of the method: (§3)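 After treating 2-leaf paddy plants or 2–18 cm postemergence plants (1 to 4 leaves) with formulated chemical, researchers kept them in a greenhouse for 13–15 days. Effects were judged visually versus controls: 0 indicates none, 100 total control.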

[4] = tested on: barnyardgrass; assay: Test B pre-/postemergence herbicide test; assay type: in vivo, Echinochloa crus-galli; conditions: for Plant response rating (0 to 100 scale), Barnyardgrass: 0 is no effect, 100 is complete control, preemergence; for Barnyardgrass plant response rating: Postemergence, scale 0 (no effect) to 100 (complete control)
Summary of the method: as §2

[5] = tested on: barnyardgrass; assay: Test B flooded paddy test; assay type: in vivo, Echinochloa crus-galli; conditions: 1000 g ai/ha, scale 0 to 100 (0 no effect, 100 complete control)
Summary of the method: as §3

[6] = tested on: Surinam grass; assay: Test B pre-/postemergence herbicide test; assay type: in vivo, Urochloa decumbens; conditions: for Plant response rating (0 to 100 scale), Surinam Grass: 0 is no effect, 100 is complete control, preemergence
Summary of the method: as §1

[7] = tested on: small flower umbrella sedge; assay: Test B flooded paddy test; assay type: in vivo, Cyperus difformis; conditions: 1000 g ai/ha, scale 0 to 100 (0 no effect, 100 complete control)
Summary of the method: as §3

[8] = tested on: morningglory; assay: Test B pre-/postemergence herbicide test; assay type: in vivo, Ipomoea coccinea; conditions: for Plant response rating (0 to 100 scale), Morningglory: 0 is no effect, 100 is complete control, preemergence
Summary of the method: as §2

[9] = tested on: rice; assay: Test B flooded paddy test; assay type: in vivo, Oryza sativa; conditions: 1000 g ai/ha, scale 0 to 100 (0 no effect, 100 complete control)
Summary of the method: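 Treated at 2-leaf (paddy) or 1–4-leaf, 2–18 cm (postemergence); greenhouse 13–15 d; visual score vs control, 0 none to 100 complete control; dash = not tested.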

[10] = tested on: corn; assay: Test B pre-/postemergence herbicide test; assay type: in vivo, Zea mays; conditions: for Plant response rating (0 to 100 scale), Corn: 0 is no effect, 100 is complete control, preemergence
Summary of the method: as §1

[11] = tested on: wild oat; assay: Test B postemergence herbicide test; assay type: in vivo, Avena fatua
Summary of the method: as §3

[12] = tested on: velvetleaf; assay: Test B pre-/postemergence herbicide test; assay type: in vivo, Abutilon theophrasti; conditions: for Plant response rating (0 to 100 scale), Velvetleaf: 0 is no effect, 100 is complete control, preemergence
Summary of the method: as §1

[13] = tested on: pigweed; assay: Test B pre-/postemergence herbicide test; assay type: in vivo, Amaranthus retroflexus; conditions: for Plant response rating (0 to 100 scale), Pigweed: 0 is no effect, 100 is complete control, preemergence
Summary of the method: as §1

[14] = tested on: giant foxtail; assay: Test B pre-/postemergence herbicide test; assay type: in vivo, Setaria faberi; conditions: for Plant response rating (0 to 100 scale), Foxtail, Giant: 0 is no effect, 100 is complete control, preemergence
Summary of the method: as §1

[15] = tested on: ducksalad; assay: Test B flooded paddy test; assay type: in vivo, Heteranthera limosa; conditions: 1000 g ai/ha, scale 0 to 100 (0 no effect, 100 complete control)
Summary of the method: as §3

[16] = tested on: wheat; assay: Test B postemergence herbicide test; assay type: in vivo, Triticum aestivum; set-up: key to Wheat plant response rating: 0 = no effect, 100 = complete control
Summary of the method: as §3

[17] = tested on: large crabgrass; assay: Test B pre-/postemergence herbicide test; assay type: in vivo, Digitaria sanguinalis; conditions: for Plant response rating (0 to 100 scale), Crabgrass, Large: 0 is no effect, 100 is complete control, preemergence
Summary of the method: as §1

[18] = Postemergence, 500 g ai/ha, scale 0 (no effect) to 100 (complete control)
[19] = postemergence, 125 g ai/ha, scale 0 to 100
[20] = 500 g ai/ha, scale 0 to 100, 0 no effect, 100 complete control, preemergence

## Cc1nn(C(C)(C)C)nc1C(=O)Nc1cc(C(=O)N(C)C)ccn1 [Compound 423]
[1]; 125 g ai/ha
  Plant response rating (0 to 100 scale), Lambsquarters: 100
[1]; [18]
  Lambsquarters plant response rating: 70
[1]; [19]
  Lambsquarters plant response rating: 50
[2]; 125 g ai/ha
  Plant response rating (0 to 100 scale), Cocklebur: 20
[2]; [18]
  Cocklebur plant response rating: 30
[2]; [19]
  Cocklebur plant response rating: 10
[3]; [18]
  Blackgrass plant response rating: 60
[3]; [19]
  Blackgrass plant response rating: 30
[4]; 125 g ai/ha
  Plant response rating (0 to 100 scale), Barnyardgrass: 90
  Barnyardgrass plant response rating: 10
[4]; 500 g ai/ha
  Barnyardgrass plant response rating: 30
[5]
  Barnyardgrass plant response rating: 80
[6]; 125 g ai/ha
  Plant response rating (0 to 100 scale), Surinam Grass: 90
[6]; [18]
  Surinam Grass plant response rating: 30
[6]; [19]
  Surinam Grass plant response rating: 10
[7]
  Sedge, Umbrella plant response rating: 70
[8]; 125 g ai/ha
  Plant response rating (0 to 100 scale), Morningglory: 30
[8]; [18]
  Morningglory plant response rating: 80
[8]; [19]
  Morningglory plant response rating: 40
[9]
  Rice plant response rating: 60
[10]; 125 g ai/ha
  Plant response rating (0 to 100 scale), Corn: 30
[10]; [18]
  Corn plant response rating: 20
[10]; [19]
  Corn plant response rating: 10
[11]; [18]
  Oat, Wild plant response rating: 30
[11]; [19]
  Oat, Wild plant response rating: 0
[12]; 125 g ai/ha
  Plant response rating (0 to 100 scale), Velvetleaf: 90
[12]; [18]
  Velvetleaf plant response rating: 50
[12]; [19]
  Velvetleaf plant response rating: 40
[13]; 125 g ai/ha
  Plant response rating (0 to 100 scale), Pigweed: 100
[13]; [18]
  Pigweed plant response rating: 60
[13]; [19]
  Pigweed plant response rating: 40
[14]; 125 g ai/ha
  Plant response rating (0 to 100 scale), Foxtail, Giant: 90
[14]; [18]
  Foxtail, Giant plant response rating: 30
[14]; [19]
  Foxtail, Giant plant response rating: 20
[15]
  Ducksalad plant response rating: 50
[16]; [20]
  Wheat plant response rating: 100
[16]; [18]
  Wheat plant response rating: 0
[16]; [19]
  Wheat plant response rating: 0
[17]; 125 g ai/ha
  Plant response rating (0 to 100 scale), Crabgrass, Large: 100
[17]; [18]
  Crabgrass, Large plant response rating: 50
[17]; [19]
  Crabgrass, Large plant response rating: 10

## CCNC(=O)c1ccnc(NC(=O)c2nn(C(C)(C)C)nc2C)c1 [Compound 424]
[1]; 125 g ai/ha
  Plant response rating (0 to 100 scale), Lambsquarters: 70
[1]; [18]
  Lambsquarters plant response rating: 70
[1]; [19]
  Lambsquarters plant response rating: 40
[2]; 125 g ai/ha
  Plant response rating (0 to 100 scale), Cocklebur: 0
[2]; [18]
  Cocklebur plant response rating: 30
[2]; [19]
  Cocklebur plant response rating: 20
[3]; [18]
  Blackgrass plant response rating: 50
[3]; [19]
  Blackgrass plant response rating: 0
[4]; 125 g ai/ha
  Plant response rating (0 to 100 scale), Barnyardgrass: 20
  Barnyardgrass plant response rating: 10
[4]; 500 g ai/ha
  Barnyardgrass plant response rating: 30
[5]
  Barnyardgrass plant response rating: 40
[6]; 125 g ai/ha
  Plant response rating (0 to 100 scale), Surinam Grass: 30
[6]; [18]
  Surinam Grass plant response rating: 30
[6]; [19]
  Surinam Grass plant response rating: 20
[7]
  Sedge, Umbrella plant response rating: 70
[8]; 125 g ai/ha
  Plant response rating (0 to 100 scale), Morningglory: 10
[8]; [18]
  Morningglory plant response rating: 70
[8]; [19]
  Morningglory plant response rating: 30
[9]
  Rice plant response rating: 20
[10]; 125 g ai/ha
  Plant response rating (0 to 100 scale), Corn: 0
[10]; [18]
  Corn plant response rating: 10
[10]; [19]
  Corn plant response rating: 0
[11]; [18]
  Oat, Wild plant response rating: 0
[11]; [19]
  Oat, Wild plant response rating: 0
[12]; 125 g ai/ha
  Plant response rating (0 to 100 scale), Velvetleaf: 20
[12]; [18]
  Velvetleaf plant response rating: 30
[12]; [19]
  Velvetleaf plant response rating: 30
[13]; 125 g ai/ha
  Plant response rating (0 to 100 scale), Pigweed: 90
[13]; [18]
  Pigweed plant response rating: 60
[13]; [19]
  Pigweed plant response rating: 30
[14]; 125 g ai/ha
  Plant response rating (0 to 100 scale), Foxtail, Giant: 20
[14]; [18]
  Foxtail, Giant plant response rating: 30
[14]; [19]
  Foxtail, Giant plant response rating: 20
[15]
  Ducksalad plant response rating: 70
[16]; [20]
  Wheat plant response rating: 50
[16]; [18]
  Wheat plant response rating: 0
[16]; [19]
  Wheat plant response rating: 0
[17]; 125 g ai/ha
  Plant response rating (0 to 100 scale), Crabgrass, Large: 90
[17]; [18]
  Crabgrass, Large plant response rating: 30
[17]; [19]
  Crabgrass, Large plant response rating: 10
